Where two headings read alike, the source gives them in different places.
Assays:
Cucumber fusarium wilt = experiment: In vitro fungicidal activity, PDA colony diameter; type: cell-based; conditions: 96 h, 50 mg/kg, inhibition of colony diameter, read-out: Fungicidal activity (%) Cucumber fusarium wilt
[1] = system: Cercospora brown spot of peanut; experiment: In vitro fungicidal activity, PDA colony diameter; type: cell-based; conditions: 96 h, 50 mg/kg, inhibition of colony diameter, read-out: Fungicidal activity (%) Cercospora brown spot of peanut
Tomato early blight = experiment: In vitro fungicidal activity, PDA colony diameter; type: cell-based, Alternaria solani; conditions: 50 mg/kg, inhibition of colony diameter; read-out: Fungicidal activity (%) Tomato early blight
Wheat head blight = experiment: whole plant or invertebrate; type: cell-based; conditions: Triticum aestivum, read-out: Fungicidal activity (%) Wheat head blight
Rice bakanae disease = experiment: In vitro fungicidal activity, PDA colony diameter; type: cell-based; conditions: 50 mg/kg, inhibition of colony diameter; read-out: Fungicidal activity (%) Rice bakanae disease
Sclerotinia rot of colza = experiment: In vitro fungicidal activity, PDA colony diameter; type: cell-based; conditions: 96 h, 50 mg/kg, inhibition of colony diameter, read-out: Fungicidal activity (%) Sclerotinia rot of colza
Apple ring rot = experiment: In vitro fungicidal activity, PDA colony diameter; type: cell-based; conditions: inhibition of colony diameter
Outline: (§1)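 Percent growth inhibition derived from colony diameter versus compound-free PDA control after 4 days' culture. Plates contained compound at 50 mg/kg; inoculum was a plug taken from the periphery of a 7-day PDA culture.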

[2] = system: Capsicum phytophthora blight; experiment: In vitro fungicidal activity, PDA colony diameter; type: cell-based; conditions: 96 h
Outline: as §1

Wheat sheath blight = experiment: In vitro fungicidal activity, PDA colony diameter; type: cell-based; conditions: 50 mg/kg, inhibition of colony diameter; read-out: Fungicidal activity (%) Wheat sheath blight
[3] = system: Corn southern leaf blight; experiment: In vitro fungicidal activity, PDA colony diameter; type: cell-based; conditions: 50 mg/kg, inhibition of colony diameter; read-out: Fungicidal activity (%) Corn southern leaf blight
Watermelon anthracnose = experiment: In vitro fungicidal activity, PDA colony diameter; type: cell-based; conditions: read-out: Fungicidal activity (%) Watermelon anthracnose
Potato late blight = experiment: microbe, parasite or virus in culture; type: cell-based; conditions: Phytophthora infestans, 96 h, read-out: Fungicidal activity (%) Potato late blight
Rice sheath blight = experiment: In vitro fungicidal activity, PDA colony diameter; type: cell-based; conditions: 50 mg/kg, inhibition of colony diameter; read-out: Fungicidal activity (%) Rice sheath blight
Armyworms = experiment: Test of insecticidal activity against armyworms (leaf immersion); conditions: 600 mg/kg, 3-4 days
Maize borers = experiment: Test of insecticidal activity against maize borers (leaf immersion); conditions: read-out: Mortalities (%) Maize borers
[4] = system: mosquito larvae (Culer pipiens pallens); experiment: Test of insecticidal activity against mosquito larvae (checked after 24 h); conditions: 24 h, read-out: Mortalities (%) against mosquito larvae
Description: Method of testing against mosquito larvae: the tested mosquito larvae are Culer pipiens pallens, a normal colony fed indoor. About 5 mg compound to be tested is weighed and loaded into a penicillin vial, 5 mL acetone (or an appropriate solvent) is added into the vial, and the vial is oscillated to dissolve the compound; thus, 1,000 ppm mother liquid is obtained. 1 mL mother liquid is weighed and added into a 100 mL beaker filled with 89 mL water, 10 mosquito larvae in the early stage of the 4th instar together with 10 mL feeding solution are poured into the beaker; thus, the concentration of the pesticide solution is 10 ppm (the pesticide solutions with other concentrations are attained by diluting the mother liquid by corresponding times). […] Water solution that contains 0.5 mL test solvent is used as a blank sample.

[5] = system: bean aphides (Aphis laburni Kaltenbach); experiment: Test of insecticidal activity against aphides (leaf immersion, checked after 96 h)
Description: The insecticidal activity against aphides is tested through the following steps: the tested aphides are bean aphides (Aphis laburni Kaltenbach), a normal colony fed with broad bean leaves in a laboratory. The pesticide is weighed, 1 mL DMF is added to dissolve the pesticide, then two drops of emulsifier, Tween-20 are added, and distilled water is added in an appropriate amount; the mixture is stirred to a homogeneous state to prepare pesticide solution at required concentration (see the following table for the specific concentration). […] In a control group, only emulsifier and solvent are added into distilled water, and the mixture is stirred to a homogeneous state.

Cotton bollworms = experiment: Test of insecticidal activity against cotton bollworms (pesticide mixed into feedstuff); conditions: read-out: Mortalities (%) Cotton bollworms
Description: Method of testing against cotton bollworms: the pesticide is mixed into the feedstuff, i.e., 3 mL prepared solution is added into about 27 g freshly prepared feedstuff; thus, required concentration is obtained by diluting by 10 times.

[6] = 50 mg/kg, inhibition of colony diameter
[7] = Aphis, 96 h, read-out: Mortalities (%) against aphides

SMILES: CC1=NNC(=O)N(NS(=O)(=O)C2CC2)C1 [Ia-5, N-(6-methyl-3-oxo-2,3-dihydro-1,2,4-triazin-4(5H)-yl)-cyclopropylsulfonamide]
- inhibition of growth at 50 mg/kg (Cucumber fusarium wilt): 8.8%
- inhibition of growth at 50 mg/kg [1]: 8%
- inhibition at 50 mg/kg (Tomato early blight): 14.9%
- inhibition at 50 mg/kg (Wheat head blight): 10.8%
- inhibition at 50 mg/kg (Rice bakanae disease): 20.7%
- inhibition of growth at 50 mg/kg (Sclerotinia rot of colza): 21%
- inhibition at 50 mg/kg (Apple ring rot): 10.8%
- inhibition of growth at 50 mg/kg [2]: 5.6%
- inhibition at 50 mg/kg (Wheat sheath blight): 8.7%
- inhibition at 50 mg/kg [3]: 18.7%
- inhibition at 50 mg/kg (Watermelon anthracnose; [6]): 16.4%
- inhibition of growth at 50 mg/kg (Potato late blight): 64.5%
- inhibition at 50 mg/kg (Rice sheath blight): 19.8%
- Mortalities (%) Armyworms (Armyworms): 10%
- mortality at 600 mg/kg (Maize borers): 10%
- mortality at 10 mg/kg [4]: 10%
- mortality at 10 mg/kg [5, 7]: 30%
- mortality at 100 mg/kg [5, 7]: 85%
- mortality at 600 mg/kg [5, 7]: 100%
- mortality at 600 mg/kg (Cotton bollworms): 15%

SMILES: CC1=NNC(=O)N(/N=C/c2cccnc2)C1 [Pymetrozine, reference compound]
- inhibition of growth at 50 mg/kg (Cucumber fusarium wilt): 5%
- inhibition of growth at 50 mg/kg [1]: 15.8%
- inhibition at 50 mg/kg (Tomato early blight): 23.8%
- inhibition at 50 mg/kg (Wheat head blight): 13.3%
- inhibition at 50 mg/kg (Rice bakanae disease): 33.3%
- inhibition of growth at 50 mg/kg (Sclerotinia rot of colza): 31.7%
- inhibition at 50 mg/kg (Apple ring rot): 27.6%
- inhibition of growth at 50 mg/kg [2]: 36.7%
- inhibition at 50 mg/kg (Wheat sheath blight): 63.6%
- inhibition at 50 mg/kg [3]: 16.7%
- inhibition at 50 mg/kg (Watermelon anthracnose; [6]): 16.7%
- inhibition of growth at 50 mg/kg (Potato late blight): 22.2%
- inhibition at 50 mg/kg (Rice sheath blight): 19%
- Mortalities (%) Armyworms (Armyworms): 50%
- mortality at 600 mg/kg (Maize borers): 35%
- mortality at 5 mg/kg [4]: 40%
- mortality at 10 mg/kg [4]: 100%
- Mortalities (%) against aphides ([5]; 2.5 mg/kg, 96 h): no insecticidal activity
- mortality at 2.5 mg/kg [5, 7]: 0%
- mortality at 5 mg/kg [5, 7]: 30%
- mortality at 10 mg/kg [5, 7]: 90%
- mortality at 100 mg/kg [5, 7]: 100%
- mortality at 600 mg/kg [5, 7]: 100%
- mortality at 600 mg/kg (Cotton bollworms): 20%

SMILES: CC1=NNC(=O)N(NS(=O)(=O)c2ccc(Cl)cc2)C1 [Ia-21, 4-chloro-N-(6-methyl-3-oxo-2,3-dihydro-1,2,4-triazin-4(5H)-yl)-benzenesulfonamide]
- inhibition of growth at 50 mg/kg (Cucumber fusarium wilt): 5.9%
- inhibition of growth at 50 mg/kg [1]: 12%
- inhibition at 50 mg/kg (Tomato early blight): 6%
- inhibition at 50 mg/kg (Wheat head blight): 16.2%
- inhibition at 50 mg/kg (Rice bakanae disease): 24.1%
- inhibition of growth at 50 mg/kg (Sclerotinia rot of colza): 26.3%
- inhibition at 50 mg/kg (Apple ring rot): 8.1%
- inhibition of growth at 50 mg/kg [2]: 25%
- inhibition at 50 mg/kg (Wheat sheath blight): 14.3%
- inhibition at 50 mg/kg [3]: 15.6%
- inhibition at 50 mg/kg (Watermelon anthracnose; [6]): 24.6%
- inhibition of growth at 50 mg/kg (Potato late blight): 18.7%
- inhibition at 50 mg/kg (Rice sheath blight): 11.6%
- Mortalities (%) Armyworms (Armyworms): 75%
- mortality at 600 mg/kg (Maize borers): 60%
- mortality at 2 mg/kg [4]: 40%
- mortality at 5 mg/kg [4]: 100%
- mortality at 10 mg/kg [4]: 100%
- insecticidal activity against aphides compared with pymetrozine ([5]; 5 mg/kg): equivalent to the insecticidal activity of pymetrozine
- mortality at 5 mg/kg [5, 7]: 35%
- mortality at 10 mg/kg [5, 7]: 85%
- mortality at 100 mg/kg [5, 7]: 100%
- mortality at 600 mg/kg [5, 7]: 100%
- mortality at 600 mg/kg (Cotton bollworms): 50%

SMILES: CC1=NNC(=O)N(NS(=O)(=O)c2ccc3c(c2)OCCO3)C1 [Ia-34, N-(6-methyl-3-oxo-2,3-dihydro-1,2,4-triazin-4(5H)-yl)-2,3-dihydrobenzo[b][1,4]dioxin-6-sulfonamide]
- inhibition of growth at 50 mg/kg (Cucumber fusarium wilt): 8.8%
- inhibition of growth at 50 mg/kg [1]: 13%
- inhibition at 50 mg/kg (Tomato early blight): 16.1%
- inhibition at 50 mg/kg (Wheat head blight): 10.9%
- inhibition at 50 mg/kg (Rice bakanae disease): 12.5%
- inhibition of growth at 50 mg/kg (Sclerotinia rot of colza): 6.6%
- inhibition at 50 mg/kg (Apple ring rot): 39.2%
- inhibition of growth at 50 mg/kg [2]: 18.8%
- inhibition at 50 mg/kg (Wheat sheath blight): 36.8%
- inhibition at 50 mg/kg [3]: 10.3%
- inhibition at 50 mg/kg (Watermelon anthracnose): 18.8%
- inhibition of growth at 50 mg/kg (Potato late blight): 3.1%
- inhibition at 50 mg/kg (Rice sheath blight): 4.7%
- Mortalities (%) Armyworms (Armyworms): 15%
- mortality at 600 mg/kg (Maize borers): 10%
- mortality at 10 mg/kg [4]: 15%
- mortality at 100 mg/kg [5, 7]: 35%
- mortality at 600 mg/kg [5, 7]: 90%
- mortality at 600 mg/kg (Cotton bollworms): 10%

Source: patent publication US11203577B2, “Sulfonyl-structure-containing triazinone derivatives, their preparation methods and their uses in insect killing and/or bacterium killing” (Nankai University, priority 2017, dated 2021)
